Experimental data from patent publication US20230059009A1, “INHIBITORS OF LIN28 AND METHODS OF USE THEREOF” (The Regents of the University of California, priority 2019, published 2023).

How the values were obtained:
MDA-MB231 [1] = test: Cell viability, CTG, MDA-MB231; assay type: cell-based; conditions: Homo sapiens, MDA-MB-231, MDA-MB231 (Breast)
Procedure: (§1) To measure cell viability, cell titer glow (CTG, Promega CellTiter-Glo 2.0 Assay) and MTT assays (SigmaAldrich, Cell Proliferation Kit I) were performed. Briefly, cells were serum starved overnight prior to seeding in 96-well plates. Following 24 h incubation, cells were treated with increasing concentrations of JGJ compounds for 96 hr. At assay read-out, CellTiter-Glo reagent was added and luminescence was measured after 10-minutes incubation at room temperature. For the MTT assay, MTT labeling reagent was added and incubated for 4 h. Subsequently, medium was removed and 50 μL DMSO was added to solubilize the crystals, and absorbance was measured at 570 nm. Cell viability was calculated as (Sample-Background)/(Control-Background). Current standard of care drugs, Enzalutamide, Palbociclib and Cetuximab were used as comparative controls.

A549 = test: Cell viability, MTT assay, A549; assay type: cell-based; conditions: Homo sapiens, A549 (Lung)
Procedure: as §1, with “(Sample-Background)/(Control-Background).” for “(Sample-Background)/(Control-Background). Current standard of care drugs, Enzalutamide, Palbociclib and Cetuximab were used as comparative controls.”

MDA-MB231 [2] = test: Cell viability, MTT assay, MDA-MB231; assay type: cell-based; conditions: Homo sapiens, MDA-MB-231, MDA-MB231 (Breast)
Procedure: as §1

DU145 = test: Cell viability, MTT assay, DU145; assay type: cell-based; conditions: Homo sapiens, DU-145, DU145 (Prostate)
Procedure: as §1

22RV1 [3] = test: Cell viability, CellTiter-Glo (CTG), 22RV1; assay type: cell-based; conditions: Homo sapiens, 22RV1 (Prostate), 96 hr
Procedure: as §1, with “(Sample-Background)/(Control-Background).” for “(Sample-Background)/(Control-Background). Current standard of care drugs, Enzalutamide, Palbociclib and Cetuximab were used as comparative controls.”

MCF7 = test: Cell viability, MTT assay, MCF7; assay type: cell-based; conditions: Homo sapiens, MCF7 (Breast)
Procedure: as §1

mature let-7 miRNAs = test: Dual luciferase reporter assay of mature let-7 miRNAs in HepG2 cells; assay type: cell-based; conditions: 3-10 μM, compared with LN1632
Procedure: (§2) To test the structure-activity relationship, 39 LN1632-related analogs (JGJ001-39) were synthesized and their potency and specificity to inhibit LIN28B-RNA binding activity and upregulate mature let-7 miRNA levels was measured. […] The dual luciferase reporter assay was performed as previously described (89).

H1975 = test: Cell viability, MTT assay, H1975; assay type: cell-based; conditions: Homo sapiens, NCI-H1975, H1975 (Lung)
Procedure: as §1, with “(Sample-Background)/(Control-Background).” for “(Sample-Background)/(Control-Background). Current standard of care drugs, Enzalutamide, Palbociclib and Cetuximab were used as comparative controls.”

LNCaP = test: Cell viability, MTT assay, LNCaP; assay type: cell-based; conditions: Homo sapiens, LNCaP (Prostate)
Procedure: as §1, with “(Sample-Background)/(Control-Background).” for “(Sample-Background)/(Control-Background). Current standard of care drugs, Enzalutamide, Palbociclib and Cetuximab were used as comparative controls.”

SW620 [4] = test: Cell viability, CTG, SW620; assay type: cell-based; conditions: Homo sapiens, SW-620, SW620 (Colon)
Procedure: as §1

22Rv1 cells = test: 22Rv1 cell counting; assay type: cell-based; conditions: 2 μM JGJ023 vs 42 μM Enzalutamide, day +5, +7, +9
Procedure: (§3) To test whether LN1632 and novel analogs thereof affect cancer cell growth, cell viability and cell counting assays in TNBC (FIG. 14B-D), castration resistant prostate cancer cells (CRPC, FIG. 15A-C) and colorectal cancer cells (CRC, FIG. 15A-C) were performed.

HCT-116 = test: Cell viability, CTG, HCT-116; assay type: cell-based; conditions: Homo sapiens, HCT-116 (Colon)
Procedure: as §1

H1568 = test: Cell viability, MTT assay, H1568; assay type: cell-based; conditions: NCI-H1568, H1568 (Lung)
Procedure: as §1

22RV1 [5] = test: Cell viability, MTT assay, 22RV1; assay type: cell-based; conditions: Homo sapiens, 22RV1 (Prostate), 96 hr
Procedure: as §1, with “(Sample-Background)/(Control-Background).” for “(Sample-Background)/(Control-Background). Current standard of care drugs, Enzalutamide, Palbociclib and Cetuximab were used as comparative controls.”

[6] = molecular target: T1, LIN28B/pre-let-7a-2 binding (Homo sapiens, UniProt Q6ZN17); test: FRET assay, EGFP-tagged LIN28B and BHQ-1 labelled pre-let-7a-2; conditions: doses 1.25 uM-20 uM; compared with LN1632
T1 construct: made in house; host or cells: stably transduced HEK cells; used as diluted protein lysate, not purified
T1 sequence (Q6ZN17 1-250): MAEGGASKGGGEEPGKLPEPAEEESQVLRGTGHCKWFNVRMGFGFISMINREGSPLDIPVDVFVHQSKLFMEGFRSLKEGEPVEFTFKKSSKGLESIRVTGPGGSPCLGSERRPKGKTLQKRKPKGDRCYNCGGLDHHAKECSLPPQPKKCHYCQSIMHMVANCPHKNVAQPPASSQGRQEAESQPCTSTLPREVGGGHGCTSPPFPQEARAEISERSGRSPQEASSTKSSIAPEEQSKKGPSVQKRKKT
Procedure: As described herein, compounds of formula (I) and (II) show Lin28/let-7 inhibitory activity in FRET assays in vitro and in LSCs and LSC-like Kasumi-1 cells. FRET assay was performed as previously described (51).
In order to improve binding and inhibitory capacity of a compound to LIN28b, we predicted the binding mode of LN1632 to LIN28B. […] With this model in hand, we synthesized novel compounds with improved binding capacity to Lin28b (JGJ002-JGJ008, FIG. 8). Compounds were screened using a previously described FRET-assay with an EGFP-tagged LIN28B as donor and a BHQ-1 quencher labelled pre-let-7a-2 (pre-let-7a-2-BHQ1) as acceptor (51). Briefly, recombinant LIN28B-EGFP was harvested from stably transduced HEK cells and diluted with binding buffer (300 mM NaCl, 25 mM HEPES pH 7.2, 10 μM ZnCl2, 1% Odyssey Blocking Buffer, 0.05% Tween 20, 0.5 mM TCEP) in order to adjust ideal FRET-quenching signal intensity. Protein lysate and compounds (JGJ001-JGJ008) were pre-incubated in doses ranging from 1.25 uM-20 uM for 20 min in 100 uL diluted protein lysate. Subsequently pre-let-7a-2-BHQ1 was added to the mixture (at 6.25 nM) and EGFP-LIN28B donor emission was measured using a Tecan Spark Plate Reader ([…], excitation at 488 nm, emission read-out at […], 30 flashes/s). […] Increased endogenous let-7 miRNA levels can target a panoply of LCS and cancer stem cell hallmark genes thus inhibiting tumor growth.
as §2

H23 = test: Cell viability, MTT assay, H23; assay type: cell-based; conditions: Homo sapiens, NCI-H23, H23 (Lung)
Procedure: as §1

BT-549 = test: Cell viability, MTT assay, BT-549; assay type: cell-based; conditions: Homo sapiens, BT-549 (Breast)
Procedure: as §1

H460 = test: Cell viability, MTT assay, H460; assay type: cell-based; conditions: Homo sapiens, NCI-H460, H460 (Lung)
Procedure: as §1

SW948 = test: Cell viability, CTG, SW948; assay type: cell-based; conditions: Homo sapiens, SW948 (Colon)
Procedure: as §1

MYC-driven cancers = test: Cell viability and cell counting assays in cancer cells; assay type: cell-based; conditions: TNBC, CRPC, lung and colorectal adenocarcinoma cells
Procedure: as §3, §1

SW480 [7] = test: Cell viability, CTG, SW480; assay type: cell-based; conditions: Homo sapiens, SW480 (Colon)
Procedure: as §1, with “(Sample-Background)/(Control-Background).” for “(Sample-Background)/(Control-Background). Current standard of care drugs, Enzalutamide, Palbociclib and Cetuximab were used as comparative controls.”

SW620 [8] = test: Cell viability, MTT assay, SW620; assay type: cell-based; conditions: Homo sapiens, SW-620, SW620 (Colon)
Procedure: as §1

SW480 [9] = test: Cell viability, MTT assay, SW480; assay type: cell-based; conditions: Homo sapiens, SW480 (Colon)
Procedure: as §1

SMILES | IC50 (MDA-MB231 [1]) | IC50 (22RV1 [3]) | Upregulation of mature let-7 miRNAs (mature let-7 miRNAs) | IC50 (LNCaP) | IC50 (SW620 [4]) | IC50 (HCT-116) | IC50 (22RV1 [5]) | Inhibition of LIN28B binding to pre-let-7a (FRET signal) [6] | IC50 (SW948) | other results
CC(=O)Nc1cccc(-c2ccc3ncc(-c4ccccc4)n3n2)c1 [JGJ023, N-(3-(3-Phenylimidazo[1,2-b]pyridazin-6-yl)phenyl)acetamide] | 17 µM | 8 µM | upregulated mature let-7 miRNAs at significantly lower doses than LN1632 | 6 µM | 27 µM | 215 µM | 2 µM | inhibit LIN28's RNA-binding capacity significantly more than compound LN1632 | 51 µM | IC50 (A549): 20 µM; IC50 (MDA-MB231 [2]): 61 µM; IC50 (DU145): 3 µM; IC50 (MCF7): 38 µM; IC50 (H1975): 8 µM; Apoptosis and cell numbers (22Rv1 cells): induces apoptosis and reduces cell numbers of mCRPC compared to Enzalutamide; IC50 (H1568): 12 µM; IC50 (H23): 94 µM; IC50 (BT-549): 7 µM; IC50 (H460): 124 µM
CC(=O)Nc1cccc(-c2ccc3[nH]cc(-c4ccccc4)c3n2)c1 [JGJ034, N-(3-(3-Phenyl-1H-pyrrolo[3,2-b]pyridin-5-yl)phenyl)acetamide] | 3 µM | 2 µM | upregulated mature let-7 miRNAs at significantly lower doses than LN1632 | 3 µM | 3 µM | 43 µM | 1 µM | inhibit LIN28's RNA-binding capacity significantly more than compound LN1632 | 85 µM | Proliferation and apoptosis of cancer cells (MYC-driven cancers): reduced proliferation and induced apoptosis preferentially in MYC-driven cancers; IC50 (SW480 [7]): 41 µM; IC50 (SW620 [8]): 2 µM; IC50 (SW480 [9]): 33 µM
